Data as given in US20170107294A1, “ANTI-CD14 ANTIBODIES AND USES THEREOF” (Nordlandssykehuset HF, priority 2014, published 2017).
pIC50: −log10 of the molar value.

Key:
factor D = factor D (Homo sapiens, UniProt P00746); conditions: cited from earlier work
human C1q = human C1q (Homo sapiens, UniProt P02745+P02746+P02747); experiment: ELISA for C1q binding
Protocol: Ninety-six-well plates (Nunc, Roskilde, Denmark) were coated with serial dilution of the Abs (6.0-0.09 mg/ml) and incubated overnight at 4° C. followed by washing three times with PBS/Tween (pH 7.4). The wells were blocked with 4% skimmed milk (Neogen Europe, Auchincruive, U.K.) for 1 h at room temperature and then washed in PBS/Tween (pH 6.0). Purified hFcRn-GST or pFcRn-GST (1 mg/ml) were diluted in 4% skimmed milk in PBS/Tween (pH 6.0) and preincubated with an HRP-conjugated anti-GST Ab (GE Healthcare U.K., Buckinghamshire, U.K.) diluted 1:5000 and added to the wells. The plates were incubated for 1 h at room temperature and washed with PBS/Tween (pH 6.0). Bound receptor was detected by adding 100 ml of 3,39,5,59-tetramethylbenzidine substrate (Calbiochem-Novabiochem, Nottingham, U.K.). The absorbance was measured at 450 nm using a Sunrise TECAN spectrophotometer. The assay described above was also performed using PBS/Tween (pH 7.4) in all steps. The same setup was used with GST-fused versions of hFcgRI, hFcgRIIa (allotype His131), hFcgRIIb, hFcgRIIIa (allotype Val158), and hFcgRIIIb (1 mg/ml each). In addition, a biotinylated human C1q (hC1 q; 4 mg/ml) preparation was incubated with the Abs and detected using ALP-conjugated streptavidin (GE Healthcare). Absorbance was measured at 405 nm.

Sequence of human C1q (P02745 23-245): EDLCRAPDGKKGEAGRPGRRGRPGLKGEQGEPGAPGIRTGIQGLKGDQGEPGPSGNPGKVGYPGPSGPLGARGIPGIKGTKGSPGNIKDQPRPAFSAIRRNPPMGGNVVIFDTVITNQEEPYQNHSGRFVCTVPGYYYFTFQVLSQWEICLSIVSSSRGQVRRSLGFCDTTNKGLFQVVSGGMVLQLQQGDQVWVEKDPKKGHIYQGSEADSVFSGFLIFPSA
Sequence of human C1q (P02746 28-253): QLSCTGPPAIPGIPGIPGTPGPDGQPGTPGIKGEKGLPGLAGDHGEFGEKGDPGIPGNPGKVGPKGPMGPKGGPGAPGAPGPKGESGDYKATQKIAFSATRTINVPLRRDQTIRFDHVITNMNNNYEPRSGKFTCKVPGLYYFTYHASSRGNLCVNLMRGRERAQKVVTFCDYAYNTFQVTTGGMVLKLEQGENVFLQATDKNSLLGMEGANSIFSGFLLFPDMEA
Sequence of human C1q (P02747 29-245): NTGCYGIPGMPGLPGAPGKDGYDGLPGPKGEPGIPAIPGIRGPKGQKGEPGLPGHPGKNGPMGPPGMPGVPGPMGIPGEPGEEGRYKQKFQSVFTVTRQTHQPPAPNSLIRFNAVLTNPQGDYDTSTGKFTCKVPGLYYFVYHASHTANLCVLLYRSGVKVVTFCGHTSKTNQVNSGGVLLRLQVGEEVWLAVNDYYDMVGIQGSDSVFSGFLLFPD
Sequence of factor D (P00746 26-253): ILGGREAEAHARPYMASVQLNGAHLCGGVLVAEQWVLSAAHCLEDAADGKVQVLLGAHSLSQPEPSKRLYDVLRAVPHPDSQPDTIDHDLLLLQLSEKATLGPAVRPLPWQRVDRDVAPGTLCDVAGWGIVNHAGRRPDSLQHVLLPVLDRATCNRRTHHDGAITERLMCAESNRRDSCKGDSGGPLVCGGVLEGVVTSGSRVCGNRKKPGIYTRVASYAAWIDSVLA

| Molecule | pIC50 (factor D) | binding to C1q (human C1q) |
| --- | --- | --- |
| N=C(N)c1cc2ccc(OC(=O)c3cccs3)cc2s1 [BCX-1470] | 7.02 |  |
| rituximab: humanized anti-CD20 IgG1 Ab from Roche, control for ELISA-based binding studies |  | did so in a dose-dependent manner |
